# Columns and labels:
# [1] = test system: Mycobacterium tuberculosis; test: Antimycobacterial activity against Mycobacterium tuberculosis H37Rv after 30 days by agar microdilution method; format: functional
# [2] = test system: Mycobacterium tuberculosis; test: Antimycobacterial activity against Mycobacterium tuberculosis H37Ra after 5 days by two-fold dilution method; format: functional; conditions: 120 h
compound,measurement,setting,value
CC1(C)CCc2cc(C(C#Cc3ccccc3)N3CCOCC3)ccc2O1 (stereo unspecified),MIC,[1],12.5 µg/mL
same,MIC,[2],> 12.5 µg/mL
CCOC(=O)[C@H]1N[C@@H](c2ccc([N+](=O)[O-])cc2)[C@@]2([N+](=O)[O-])C(c3ccc(OC)cc3)Oc3ccccc3[C@@H]12 (relative stereo),MIC,[1],12.5 µg/mL
same,MIC,[2],> 12.5 µg/mL
CCCCCCC#CC(c1ccc2c(c1)CCC(C)(C)O2)N1CCCCC1 (stereo unspecified),MIC,[1],1.56 µg/mL
same,MIC,[2],> 12.5 µg/mL
NNC(=O)c1ccncc1 [ISONIAZID],MIC,[1],0.75 µg/mL
CCOC(=O)[C@H]1N[C@@H](c2cccc([N+](=O)[O-])c2)[C@@H]([N+](=O)[O-])[C@@H]1c1ccc2c(c1)CCC(C)(C)O2 (relative stereo),MIC,[1],12.5 µg/mL
same,MIC,[2],> 12.5 µg/mL
CC[C@@H](CO)NCCN[C@@H](CC)CO [ETHAMBUTOL],MIC,[1],3.25 µg/mL
CCOC(=O)[C@H]1N[C@@H](c2ccc(OC)cc2)[C@@H]([N+](=O)[O-])[C@@H]1c1ccc2c(c1)CCC(C)(C)O2 (relative stereo),MIC,[1],> 12.5 µg/mL
same,MIC,[2],> 12.5 µg/mL
CCCCCCC#CC(c1ccc2c(c1)CCC(C)(C)O2)N1CCOCC1 (stereo unspecified),MIC,[2],> 12.5 µg/mL
CC1(C)CCc2cc(C(C#Cc3ccccc3)N3CCCCC3)ccc2O1 (stereo unspecified),MIC,[1],6.25 µg/mL
same,MIC,[2],> 12.5 µg/mL
CCOC(=O)[C@H]1N[C@@H](c2ccccc2)[C@@H]([N+](=O)[O-])[C@@H]1c1ccc2c(c1)CCC(C)(C)O2 (relative stereo),MIC,[1],12.5 µg/mL
same,MIC,[2],> 12.5 µg/mL
CCOC(=O)[C@H]1N[C@@H](c2ccc(OC)cc2)[C@@]2([N+](=O)[O-])C(c3ccc(OC)cc3)Oc3ccccc3[C@@H]12 (relative stereo),MIC,[1],> 12.5 µg/mL
same,MIC,[2],> 12.5 µg/mL
CCCCCC#CC(c1ccc2c(c1)CCC(C)(C)O2)N1CCOCC1 (stereo unspecified),MIC,[1],3.12 µg/mL
same,MIC,[2],> 12.5 µg/mL
